pIC50: −log10 of the molar value.
How the values were obtained:
phosphodiesterase IV = details: Type of PDE inhibited: IV; in vitro; cited from earlier work
SD-strain rats [1] = assay: Test Example 3: oral dyskinesia induced by haloperidol (1.5 mg/kg i.p. daily, 5 weeks) in rats; type: in vivo, SD-strain rats (female)
Experimental: Haloperidol in the form of a suspension of haloperidol in 0.5% aqueous carboxymethylcellulose was intraperitoneally administrated at a dose of 1.5 mg/kg to each rat of SD-strain rats (female, 7 to 8 rats per group) once a day for consecutive five weeks.
Ro 20-1724 was formulated into the form of a suspension in which said compound was partially dissolved and partially dispersed in a physiological saline containing 10% Cremophor. On the next day of the final administration of haloperidol, Ro 20-1724 as the suspension was intraperitoneally administered at a dose of 3 mg/kg, […] or 30 mg/kg in the rats under test. To the control group of rats was administered only the physiological saline containing 10% Cremophor.
The numbers of the vacuous chewing movements and the abnormal tongue-protruding movements appearing during the 15 min. period of the observation were counted as the indices of oral dyskinesia in the rats. The net observation time was calculated by substracting from the total observation time of 15 minutes the amount of time which the rat spent in exploration or grooming. The indices of the oral dyskinesia were expressed as the number of occurrence of the abnormal movements observed in one minute of the net observation time.

SD-strain rats [2] = assay: Test Example 2: oral dyskinesia induced by haloperidol decanoate (25 mg/kg i.m. every 4 weeks, 24 weeks) in rats; type: in vivo, SD-strain rats (male); details: for Number of the tongue protrusions / Number of the chewings: 15 min observation from 15 min after dosing, Mean±SE; for Number of the tongue protrusions: control 17.2 ± 5.5; for Number of the chewings: control 213.3 ± 50.5; for suppression of oral dyskinesia: haloperidol decanoate-induced, rats, i.p.
Experimental: Haloperidol decanoate was intramuscularly injected in the femoral region of each rat of SD-strain rats (male, 6 rats per group) at a dose of 25 mg/kg once for every 4 weeks during the total period of 24 weeks.
To the control group of rats was intraperitoneally administered only the physiological saline containing 10% Cremophor.
The numbers of the vacuous chewing movements and the abnormal tongue-protruding movements appearing during the 15 min. period of the observation were counted as indices of oral dyskinesia in the rats.
Values of Mean±Standard error of the numbers of the abnormal movements as observed were calculated, and the results obtained are shown in Table 3 below.

phosphodiesterase I ~ V = details: Type of PDE inhibited: I ~ V; in vitro; cited from earlier work
patients = details: long-term administration; cited from earlier work
acute toxicity in rats = details: rat, in vivo
cAMP in the brain = details: rats; animal tests, J. Med. Chem. 34(1), 291-293 (1991); cited from earlier work
SD-strain rats [3] = assay: Test Example 1: tardive dyskinesia induced by haloperidol (1.5 mg/kg i.p. daily, 3 weeks) in rats; type: in vivo, SD-strain rats (male); details: for Number of the tongue protrusions / Number of the chewings: 15 min observation from 3 min after dosing, Mean±SE; for Number of the tongue protrusions: control 7.7 ± 2.1; for Number of the chewings: control 111.2 ± 27.8
Experimental: After lapse of 96 hours from the completion of the last administration of haloperidol, the number of the vacuous chewing movements of the mouth and the number of abnormal tongue-protruding movements of the rats were counted as the parameters indicative of tardive dyskinesia.

phosphodiesterase I = details: Type of PDE inhibited: I; in vitro; cited from earlier work

CCCCOc1cc(CC2CNC(=O)N2)ccc1OC (centres unmarked) [Ro 20-1724]
pIC50 (phosphodiesterase IV): 5.70
Number of the tongue protrusions (SD-strain rats [1]; 3 mg/kg i.p., number in one minute of net observation time, Mean±SE, n = 8, control 1.90 ± 0.87): 0.46 ± 0.17
Number of the chewings (SD-strain rats [1]; 3 mg/kg i.p., number in one minute of net observation time, Mean±SE, n = 8, control 16.2 ± 2.4): 11.7 ± 2.1
suppression of oral dyskinesia (SD-strain rats [1]; haloperidol-induced, rats, i.p. 3, 10, 30 mg/kg): suppressed in a dose dependent manner the oral dyskinesia

CC(C)Cn1c(=O)n(C)c(=O)c2[nH]cnc21 [IBMX, 3-isobutyl-1-methylxanthine]
Number of the tongue protrusions (SD-strain rats [2]; 2.0 mg/kg i.p.): 4.8 ± 1.8
Number of the chewings (SD-strain rats [2]; 2.0 mg/kg i.p.): 135.3 ± 45.0
suppression of oral dyskinesia (SD-strain rats [2]): had a tendency to suppress the above-mentioned oral dyskinesia

Cn1c(=O)c2[nH]cnc2n(C)c1=O [Theophylline, 3,7-dihydro-1,3-dimethyl-1H-purine-2,6-dione]
pIC50 (phosphodiesterase I ~ V): ~3.70

O=C(CCCN1CCC(O)(c2ccc(Cl)cc2)CC1)c1ccc(F)cc1 [haloperidol]
adverse reaction (patients): induction of tardive dyskinesia

COc1ccc(C2CNC(=O)C2)cc1OC1CCCC1 (racemic) [Rolipram, (±)-4-[3-(cyclopentyloxy)-4-methoxyphenyl]-2-pyrrolidinone]
LD50 (acute toxicity in rats; ip, intraperitoneal): ~500 mg/kg
LD50 (acute toxicity in rats; oral): ~1200 mg/kg
concentration of cAMP in the brain (cAMP in the brain): can increase the concentration of cAMP in the brain of rats
Number of the tongue protrusions (SD-strain rats [2]; 0.1 mg/kg i.p.): 6.0 ± 2.2
Number of the chewings (SD-strain rats [2]; 0.1 mg/kg i.p.): 138.0 ± 38.1
Number of the tongue protrusions (SD-strain rats [2]; 0.5 mg/kg i.p.): 1.7 ± 1.1
Number of the chewings (SD-strain rats [2]; 0.5 mg/kg i.p.): 33.8 ± 13.8
Number of the tongue protrusions (SD-strain rats [2]; 1.0 mg/kg i.p.): 1.3 ± 1.1
Number of the chewings (SD-strain rats [2]; 1.0 mg/kg i.p.): 42.0 ± 9.5
suppression of oral dyskinesia (SD-strain rats [2]): suppress in a dose-dependent manner the oral dyskinesia
Number of the tongue protrusions (SD-strain rats [3]; 0.5 mg/kg i.p.): 2.7 ± 1.7
Number of the chewings (SD-strain rats [3]; 0.5 mg/kg i.p.): 32.2 ± 14.5
Number of the tongue protrusions (SD-strain rats [3]; 1.0 mg/kg i.p.): 1.5 ± 1.5
Number of the chewings (SD-strain rats [3]; 1.0 mg/kg i.p.): 8.8 ± 4.0
therapeutic effect on symptoms of tardive dyskinesia (SD-strain rats [3]; haloperidol-induced rat model, i.p. 0.5 and 1.0 mg/kg): suppresses in a dose-dependent manner the symptoms of tardive dyskinesia

CCCCn1c(=O)c2c(ncn2CC(C)=O)n(CCCC)c1=O [Denbufylline, 7-(2-oxopropyl)-1,3-di-n-butylxanthine]
pIC50 (phosphodiesterase IV): 6.52

CCOC(=O)C1=C[C@]2(CC)CCCN3CCc4c(n1c1ccccc41)[C@@H]32 [Vinpocetine, eburnamenine 14-carboxylic acid ethyl ester]
pIC50 (phosphodiesterase I): 4.70

From patent US5712282A, “Method for therapeutically treating tardive dyskinesia and uses thereof” (Iyo; Masaomi, priority 1994, dated 1998)
